For orientation: Inhibition means the share of the control response that was lost under treatment. Usually IC50 stands for the midpoint of a concentration-inhibition curve.

The record followed here is ChEMBL document CHEMBL1140714, “In search of novel agents for therapy of tropical diseases and human immunodeficiency virus” (J Med Chem, 2008).

The source made the active and inactive calls. The calls are words filed in the database; no cut-off is given here.

Series [1] has as its system Human immunodeficiency virus 1. As to the kind of experiment: Antiviral activity against HIV1 BaL replication in PM1 cells. It counts as functional.
The test system of series [2] is Trypanosoma brucei brucei. As to the kind of experiment: Antitrypanosomal activity against Trypanosoma brucei brucei TC221. It is filed as functional. Conditions: read-out: ED50 (the source's name).
Series [3] relates to Human immunodeficiency virus 1. As to the kind of experiment: Antiviral activity against HIV1 NL4/3 replication in PM1 cells. It counts as functional.
Series [4] is described as follows: Cytotoxicity against mouse J774.1 cells after 48 hrs. It counts as cell-based. As to conditions: read-out: ED50.
The test system of series [5] is Plasmodium falciparum. The series is described as follows: Antiplasmodial activity against Plasmodium falciparum NF54 infected mice (Mus musculus) after 72 hrs. It counts as functional, organism-based. Conditions: NF54, 72 h.
The test system of a further series is Staphylococcus aureus. As to the kind of experiment: Antibacterial activity against Staphylococcus aureus assessed as inhibition of biofilm formation. It counts as functional, organism-based.
The next series relates to Leishmania major. The series is described as follows: Antileishmanial activity against Leishmania major MHOM/IL/81/FE/BNI infected in BALB/c mouse. It is filed as functional.
Series [6] deals with Plasmodium falciparum. As to the kind of experiment: Inhibition of parasitemia in chloroquine-sensitive Plasmodium falciparum NF54 infected C57BL/6 mice (Mus musculus) after 1 day at 40 uM. It is filed as functional. The arrangement: scale not given: the % may be the effect or the level left.
The subject of series [7] is Plasmodium falciparum. As to the kind of experiment: Antiplasmodial activity against Plasmodium falciparum NF54 after 24 hrs. It counts as functional, organism-based. As to conditions: NF54, 24 h.
For series [8], the system named is Plasmodium falciparum. As to the kind of experiment: Inhibition of parasitemia in chloroquine-sensitive Plasmodium falciparum NF54 infected C57BL/6 mice (Mus musculus) after 2 days at 20 uM. It counts as functional. On the set-up: scale not given: the % may be the effect or the level left.
Series [9] concerns Plasmodium falciparum. The series is described as follows: Antiplasmodial activity against Plasmodium falciparum NF54 after 72 hrs. Conditions: NF54, 72 h. It is filed as functional, organism-based.
In series [10] the test system is Mus musculus. The series is described as follows: Increase in survival of chloroquine-sensitive Plasmodium falciparum NF54 infected intravenously dosed C57BL/6 mice (Mus musculus). It counts as functional, organism-based.
For series [11], the system named is Plasmodium falciparum. As to the kind of experiment: Antiplasmodial activity against Plasmodium falciparum NF54 after 48 hrs. Conditions: NF54, 48 h. It counts as functional, organism-based.
The subject of series [12] is Plasmodium falciparum. The series is described as follows: Antiplasmodial activity against chloroquine-sensitive Plasmodium falciparum NF54. It counts as functional, organism-based.
The test system of series [13] is Plasmodium falciparum. As to the kind of experiment: Antiplasmodial activity against chloroquine-resistant Plasmodium falciparum. It is filed as functional, organism-based.
For series [14], the system named is Plasmodium falciparum. The series is described as follows: Antiplasmodial activity against chloroquine-sensitive Plasmodium falciparum. Conditions: Plasmodium falciparum; read-out: IC50. It is filed as functional, organism-based.
Series [15] relates to Plasmodium falciparum. As to the kind of experiment: Antiplasmodial activity against Plasmodium falciparum NF54 after 36 hrs. Conditions: NF54, 36 h. It counts as functional, organism-based.
In series [16] the test system is Plasmodium falciparum. As to the kind of experiment: Inhibition of parasitemia in chloroquine-sensitive Plasmodium falciparum NF54 infected C57BL/6 mice (Mus musculus) after 4 days. It is filed as functional. On the set-up: scale not given: the % may be the effect or the level left.
Series [17] has as its system Human immunodeficiency virus 1. As to the kind of experiment: Antiviral activity against HIV1 NL4/3 replication in PM1 cells at 6 uM. It is filed as functional, organism-based.
For series [18], the system named is Mus musculus. As to the kind of experiment: Increase in survival of chloroquine-sensitive Plasmodium falciparum NF54 infected perorally dosed C57BL/6 mice (Mus musculus). It counts as functional, organism-based.
The subject of series [19] is Human immunodeficiency virus 1. As to the kind of experiment: Antiviral activity against HIV1 BaL replication in PM1 cells at 5 uM. It is filed as functional, organism-based.

Consider `CCOC(=O)C1C(=O)C(C(=O)OCC)[C@H](c2ccc([N+](=O)[O-])cc2)N(Cc2ccccc2)[C@@H]1c1ccc([N+](=O)[O-])cc1` (some centres undefined), for which the Inhibition in [1] and in series [3] was 20% throughout. Also, the EC50 in series [2] came to 2.72 µM. Further, the CC50 at 48 h in series [4] is above 100 µM. In addition, in the series on Plasmodium falciparum [5], the IC50 was 10.1 µM. Moreover, the outcome in the series on Staphylococcus aureus was inactive.

On to `COC(=O)C1C(=O)C(C(=O)OC)[C@H](c2ccc([N+](=O)[O-])cc2)N(Cc2ccccc2)[C@@H]1c1ccc([N+](=O)[O-])cc1` (some centres undefined), for which the Inhibition in series [1] and in series [3] was 20% each time. The EC50 in [2] stood at 3.01 µM. Besides, in series [4], the CC50 at 48 h was 18.4 µM. This compound gave an ED50 with Leishmania major above 100 µM. This compound showed an IC50 in the series on Plasmodium falciparum [5] of 11.9 µM. Further, the outcome in the series on Staphylococcus aureus was inactive.

For the compound `COC(=O)C1C(=O)C(C(=O)OC)[C@H](c2ccccn2)N(Cc2ccccc2)[C@@H]1c1ccccn1` (some centres undefined), the Activity with Plasmodium falciparum [6] and with Plasmodium falciparum [8] was 0% throughout. The figures for the IC50 with Plasmodium falciparum [7] and with Plasmodium falciparum [9] were 10.2 µM and 10.9 µM, respectively. The result in the series on Mus musculus [10] was Active. The CC50 at 48 h in series [4] was 34 µM. For the same compound, the ED50 with Leishmania major was determined as 55.99 µM. In addition, the result in the series with Staphylococcus aureus was inactive.

As to `COC(=O)C1=C(O)C[C@H](c2ccccn2)N(Cc2ccc(Cl)cc2)[C@@H]1c1ccccn1`, the IC50 was found to be 1.7 µM in the series with Plasmodium falciparum [11] and 12 µM in the series with Plasmodium falciparum [9]. Besides, the EC50 in series [2] stood at 0.32 µM. The CC50 at 48 h in series [4] was found to be 32.8 µM. The ED50 in the series with Leishmania major came out at 87.93 µM. Further, the outcome with Staphylococcus aureus was inactive.

In the case of `Cc1cc(C2CCCCC2)n(O)c(=O)c1` [CICLOPIROX OLAMINE], the IC50 with Plasmodium falciparum [12] was found to be 8.2 µM.

`N[C@@H](Cn1ccc(=O)c(O)c1)C(=O)O` [L-MIMOSINE]: the IC50 in the series with Plasmodium falciparum [13] is 39 µM; in the series with Plasmodium falciparum [14], 32 µM.

Consider `NC(Cn1ccc(=O)c(O)c1)C(=O)O` (centres undefined) [MIMOSINE], for which the IC50 turned out to be 39 µM in the series on Plasmodium falciparum [13] and 32 µM with Plasmodium falciparum [14]. The EC50 in series [2] was above 100 µM.

With `COC(=O)c1c(-c2ccccn2)n(Cc2ccc(Cl)cc2)c(-c2ccccn2)cc1=O`, the EC50 in series [2] is above 100 µM. The same compound came in with an IC50 in the series with Plasmodium falciparum [15] of 9.4 µM. In series [4], the CC50 at 48 h was above 100 µM. For the same compound, the ED50 with Leishmania major was above 100 µM. In the series on Staphylococcus aureus, the outcome was inactive.

`Cl.Clc1cccc(Cl)c1CO/N=C/C1CCN(CCCc2ccccc2)CC1`: the IC50 with Plasmodium falciparum [7] amounted to 11.8 µM; in the series with Plasmodium falciparum [9], 8.29 µM. Moreover, in [4], the CC50 at 48 h came out at 28.4 µM. This compound also gave an ED50 in the series on Leishmania major of 30.72 µM. Further, in the series with Staphylococcus aureus, the outcome was inactive.

`COC(=O)c1c(-c2ccccn2)n(Cc2ccc(C)cc2)c(-c2ccccn2)cc1=O`: the half-inhibitory concentration (IC50) in the series on Plasmodium falciparum [11] came out at 40 µM; in the series with Plasmodium falciparum [7] it was 9.1 µM. Moreover, in the series with Staphylococcus aureus, the result was inactive.

Consider `C=CCN1[C@H](c2ccc([N+](=O)[O-])cc2)C(C(=O)OCC)C(=O)C(C(=O)OCC)[C@@H]1c1ccc([N+](=O)[O-])cc1` (some centres undefined), for which, in the series with Plasmodium falciparum [16], the Activity stood at 0%. Further, the result (in series [17]; with Mus musculus [18]; in series [19]) was Active. Moreover, in [2], the EC50 was 3.06 µM. In addition, the CC50 at 48 h in series [4] is above 100 µM. In the series on Plasmodium falciparum [5], this compound returned an IC50 of 11 µM. Also, in the series on Staphylococcus aureus, the result was inactive.
